Reference: patent US11628181B2, “N4-hydroxycytidine and derivatives and anti-viral uses related thereto” (Emory University, priority 2014, dated 2023)
Converted amounts (≈) assume the structure as drawn. Where two headings read alike, the source gives them in different places.

Assays:
in vitro [1] = conditions: African green monkey
SARS Coronavirus Urbani = assay: microbe, parasite or virus in culture; type: cell-based; conditions: Severe acute respiratory syndrome-related coronavirus, Vero 76
VEEV [2] = assay: microbe, parasite or virus in culture; type: cell-based; conditions: Venezuelan equine encephalitis virus, Astrocyte; for inhibition at 10 µM: read-out: Viral Inh. 10 uM; for inhibition at 50 µM: read-out: Viral Inh. 50 uM
CHIKV = assay: microbe, parasite or virus in culture; conditions: Chikungunya virus
in vitro [3] = assay: in vitro
Vero = assay: Cell viability, Vero (MERV screen); type: cell-based
MERV = MERV (MOI 0.4) viral inhibition in Vero; type: cell-based; conditions: MERV MOI 0.4, Vero; for inhibition at 10 µM: read-out: Viral Inh. 10 uM; for inhibition at 50 µM: read-out: Viral Inh. 50 uM
U2OS cell line = assay: Cell viability, U2OS cell line (Chikungunya screen)
Chikungunya virus = Chikungunya virus (MOI 0.5) viral inhibition in U2OS cell line; type: cell-based; conditions: for inhibition at 10 µM: read-out: Viral Inh. 10 uM; for inhibition at 50 µM: read-out: Viral Inh. 50 uM
HeLa = conditions: human
VEEV [4] = assay: microbe, parasite or virus in culture; type: cell-based; conditions: Venezuelan equine encephalitis virus, HeLa; for inhibition at 10 µM: read-out: Viral Inh. 10 uM; for inhibition at 50 µM: read-out: Viral Inh. 50 uM

SMILES: CCCCCCCOC(=O)ONc1ccn([C@@H]2O[C@H](CO)C(O)C2O)c(=O)n1 (some centres unmarked) [drawing 70]
- CC50 (in vitro [1]): > 100 µg/mL
- EC50 (SARS Coronavirus Urbani): 0.28 µg/mL (≈ 0.698 µM)

SMILES: CC(C)OC(=O)[C@H](C)NP(=O)(OC[C@H]1O[C@@H](n2ccc(NO)nc2=O)C(O)C1O)Oc1ccccc1 (some centres unmarked) [drawing 85]
- inhibition at 10 µM (VEEV [2]): 49%
- inhibition at 50 µM (VEEV [2]): 96%
- Cell Viability 10 uM (Astrocytes): 102% ± 16% (n = 3)
- Cell Viability 50 uM (Astrocytes): 100% ± 17% (n = 3)

SMILES: CC(C)(C)C(=O)OCOP(=O)(OCOC(=O)C(C)(C)C)OC[C@H]1O[C@@H](n2ccc(=O)[nH]c2=O)[C@](C)(O)C1O (some centres unmarked) [EIDD-02416-01]
- EC50 (CHIKV): 27 µM
- CC50 (in vitro [3]): 53 µM

SMILES: O=c1nc(NO)ccn1[C@@H]1O[C@H](CO)C(O)C1O (some centres unmarked) [drawing 88]
- Cell Viability 10 uM (Vero): 75% ± 6% (n = 4)
- Cell Viability 50 uM (Vero): 47% ± 3% (n = 4)
- inhibition at 10 µM (MERV): 99%
- inhibition at 50 µM (MERV): 100%

SMILES: CCCCCCCOC(=O)OC[C@H]1O[C@@H](n2ccc(NO)nc2=O)C(O)[C@H]1O (some centres unmarked) [EIDD-02474-01]
- EC50 (CHIKV): 0.07 µM
- CC50 (in vitro [3]): 184 µM

SMILES: CCCCCCCOC(=O)ONc1ccn([C@@H]2O[C@H](CO)C(O)C2O)c(=O)n1 (some centres unmarked) [drawing 74]
- Cell Viability 10 uM (U2OS cell line): 93% ± 4% (n = 4)
- Cell Viability 50 uM (U2OS cell line): 79% ± 8% (n = 4)
- inhibition at 10 µM (Chikungunya virus): 72%
- inhibition at 50 µM (Chikungunya virus): 98%

SMILES: [2H]c1cn([C@@H]2O[C@H](CO)C(O)[C@@H]2O)c(=O)nc1NO (some centres unmarked) [EIDD-02261-01]
- EC50 (CHIKV): 1.5 µM
- CC50 (in vitro [3]): > 500 µM

SMILES: O=c1nc(NO)c(F)cn1[C@@H]1O[C@H](CO)C(O)C1O (some centres unmarked) [drawing 76]
- Cell Viability 10 uM (U2OS cell line): 81% ± 4% (n = 4)
- Cell Viability 50 uM (U2OS cell line): 53% ± 2% (n = 4)
- inhibition at 10 µM (Chikungunya virus): 8%
- inhibition at 50 µM (Chikungunya virus): 51%

SMILES: CNC(=O)ONc1ccn([C@@H]2O[C@H](CO)C(O)[C@@H]2O)c(=O)n1 (some centres unmarked) [EIDD-02422-01]
- EC50 (CHIKV): 32 µM
- CC50 (in vitro [3]): > 500 µM

SMILES: O=c1nc(NO)cc[nH]1 [EIDD-02504-01]
- EC50 (CHIKV): > 78 µM
- CC50 (in vitro [3]): > 500 µM

SMILES: CCCCCCCOC(=O)ONc1ccn([C@@H]2O[C@H](CO)C(O)C2O)c(=O)n1 (some centres unmarked) [drawing 79]
- Cell Viability 10 uM (HeLa): 116% ± 20% (n = 4)
- Cell Viability 50 uM (HeLa): 85% ± 8% (n = 4)
- EC50 (VEEV [4]): 0.57 µM
- inhibition at 10 µM (VEEV [4]): 100%
- inhibition at 50 µM (VEEV [4]): 100%

SMILES: CCCCCCCCC(=O)OC[C@H]1O[C@@H](n2ccc(NO)nc2=O)C(O)[C@H]1O (some centres unmarked) [EIDD-02476-01]
- EC50 (CHIKV): 0.3 µM
- CC50 (in vitro [3]): 154 µM

SMILES: CCCCCCCOC(=O)ONc1ccn([C@@H]2O[C@H](CO)C(O)C2O)c(=O)n1 (some centres unmarked) [drawing 89]
- Cell Viability 10 uM (Vero): 84% ± 8% (n = 4)
- Cell Viability 50 uM (Vero): 58% ± 2% (n = 4)
- inhibition at 10 µM (MERV): 99%
- inhibition at 50 µM (MERV): 99%

SMILES: CC(C)OC(=O)[C@H](C)NP(=O)(OC[C@H]1O[C@@H](n2ccc(NO)nc2=O)C(O)C1O)Oc1ccccc1 (some centres unmarked) [drawing 80]
- Cell Viability 10 uM (HeLa): 137% ± 16% (n = 4)
- Cell Viability 50 uM (HeLa): 134% ± 16% (n = 4)
- EC50 (VEEV [4]): 16.2 µM
- inhibition at 10 µM (VEEV [4]): 73%
- inhibition at 50 µM (VEEV [4]): 100%

SMILES: O=c1nc(NO)ccn1[C@@H]1O[C@H](CO)[C@H](O)C1F (some centres unmarked) [EIDD-02085-01]
- EC50 (CHIKV): > 75 µM
- CC50 (in vitro [3]): > 500 µM

SMILES: CC(C)OC(=O)[C@H](C)NP(=O)(OC[C@H]1O[C@@H](n2ccc(NO)nc2=O)C(O)C1O)Oc1ccccc1 (some centres unmarked) [drawing 90]
- Cell Viability 10 uM (Vero): 103% ± 14% (n = 4)
- Cell Viability 50 uM (Vero): 102% ± 36% (n = 4)
- inhibition at 10 µM (MERV): 29%
- inhibition at 50 µM (MERV): 85%

SMILES: CCCCCCCNC(=O)ONc1ccn([C@@H]2O[C@H](CO)[C@H](O)C2O)c(=O)n1 (some centres unmarked) [EIDD-02107-01]
- EC50 (CHIKV): 29 µM
- CC50 (in vitro [3]): 165 µM

SMILES: CCCCCCCNC(=O)ONc1ccn([C@@H]2O[C@H](CO)C(O)C2O)c(=O)n1 (some centres unmarked) [drawing 77]
- Cell Viability 10 uM (U2OS cell line): 105% ± 2% (n = 4)
- Cell Viability 50 uM (U2OS cell line): 96% ± 11% (n = 4)
- inhibition at 10 µM (Chikungunya virus): 14%
- inhibition at 50 µM (Chikungunya virus): 70%

SMILES: CC(C)(C)C(=O)OCOP(=O)(OCOC(=O)C(C)(C)C)OC[C@H]1O[C@@H](n2ccc(=O)[nH]c2=O)[C@](C)(F)C1O (some centres unmarked) [EIDD-02427-01]
- EC50 (CHIKV): 58 µM
- CC50 (in vitro [3]): 355 µM

SMILES: CCCCCCCCC(=O)ONc1ccn([C@@H]2O[C@H](CO)C(O)C2O)c(=O)n1 (some centres unmarked)
- CC50 (in vitro [1]): 36 µg/mL (≈ 90.1 µM)
- EC50 (SARS Coronavirus Urbani): 0.19 µg/mL (≈ 0.476 µM)

SMILES: CCCCCCCOC(=O)ONc1ccn([C@@H]2O[C@H](CO)C(O)C2O)c(=O)n1 (some centres unmarked) [drawing 84]
- inhibition at 10 µM (VEEV [2]): 94%
- inhibition at 50 µM (VEEV [2]): 100%
- Cell Viability 10 uM (Astrocytes): 99% ± 9% (n = 3)
- Cell Viability 50 uM (Astrocytes): 94% ± 10% (n = 3)

SMILES: O=c1ccn([C@@H]2O[C@H](CO)C(O)[C@@]23CC3(F)F)c(=O)[nH]1 (some centres unmarked) [EIDD-02340-01]
- EC50 (CHIKV): > 78 µM
- CC50 (in vitro [3]): > 500 µM

SMILES: NNc1ccn([C@@H]2O[C@H](CO)C(O)[C@@H]2O)c(=O)n1 (some centres unmarked) [EIDD-01910-01]
- EC50 (CHIKV): > 78 µM
- CC50 (in vitro [3]): > 500 µM
